Laboratory results reported in patent US7259003B2, “Escherichia bacteria transformed with a yedA homolog to enhance L-amino acid producing activity, and methods for producing an L-amino acid using same” (priority 2001, dated 2007).

Experiments:
Type in all cases: cell-based
Details in all cases: 37° C.
[1] = tested on: E. coli strain TG1 (pYEDA1); assay: Growth of E. coli TG1 (pYEDA1) on M9 glucose minimal agar containing amino acids and amino acid analogs
Experimental: (§1) The pYEDA1 and pYEDA2 plasmids and the pUC19 and pAYCTER3 vectors were introduced into E. coli strain TG1. Thus the strains TG1 (pYEDA1), TG1 (pYEDA2), TG1 (pUC19) and TG1 (pAYCTER3) were obtained.
(§2) Then the ability of these strains to grow in the presence of amino acids and amino acid analogues for each strain were determined on M9 glucose minimal agar plates containing graded concentrations of inhibitor. The plates were spotted with 10^6 to 10^7 cells from an overnight culture grown in a minimal medium (supplemented with 100 μg/ml of ampicillin for plasmid strains). The growth was estimated after 44 h incubation at 37° C.

[2] = tested on: E. coli strain TG1 (pYEDA2); assay: Growth of E. coli TG1 (pYEDA2) on M9 glucose minimal agar containing amino acids and amino acid analogs
Experimental: as §1, §2

[3] = tested on: E. coli strain TG1 (pUC19); assay: Growth of E. coli TG1 (pUC19) on M9 glucose minimal agar containing amino acids and amino acid analogs
Experimental: as §1, §2
Further: key: +: good growth; −: no growth.

NC(Cc1ccc(F)cc1)C(=O)O (racemic) [p-fluoro-DL-phenylalanine]
Growth after 44 h TG1 (pYEDA1) ([1]; substrate 1.0 mg/ml): +
Growth after 44 h TG1 (pYEDA1) ([1]; substrate 2.0 mg/ml): +
Growth after 44 h TG1 (pYEDA2) ([2]; substrate 1.0 mg/ml): +
Growth after 44 h TG1 (pYEDA2) ([2]; substrate 2.0 mg/ml): −
Growth after 44 h TG1 (pUC19) ([3]; substrate 1.0 mg/ml): −
Growth after 44 h TG1 (pUC19) ([3]; substrate 2.0 mg/ml): −

N[C@@H](CCO)C(=O)O [L-homoserine]
Growth after 44 h TG1 (pYEDA1) ([1]; substrate 3.0 mg/ml): +
Growth after 44 h TG1 (pUC19) ([3]; substrate 3.0 mg/ml): −

N[C@@H](Cc1ccccc1)C(=O)O [L-phenylalanine]
Growth after 44 h TG1 (pYEDA1) ([1]; substrate 20.0 mg/ml): +
Growth after 44 h TG1 (pYEDA2) ([2]; substrate 20.0 mg/ml): −
Growth after 44 h TG1 (pUC19) ([3]; substrate 20.0 mg/ml): −

NCCSC[C@H](N)C(=O)O [S(2-aminoethyl)-L-cysteine]
Growth after 44 h TG1 (pYEDA1) ([1]; substrate 0.4 mg/ml): +
Growth after 44 h TG1 (pYEDA2) ([2]; substrate 0.4 mg/ml): +
Growth after 44 h TG1 (pUC19) ([3]; substrate 0.4 mg/ml): −

CN(C)CC(N)C(=O)O (racemic) [4-aza-DL-leucine]
Growth after 44 h TG1 (pYEDA1) ([1]; substrate 1.0 mg/ml): +
Growth after 44 h TG1 (pUC19) ([3]; substrate 1.0 mg/ml): −

N[C@@H](Cc1c[nH]cn1)C(=O)O [L-histidine]
Growth after 44 h TG1 (pYEDA1) ([1]; substrate 20.0 mg/ml): +
Growth after 44 h TG1 (pUC19) ([3]; substrate 20.0 mg/ml): −

NC(Cc1c[nH]c2ccc(F)cc12)C(=O)O (racemic) [5-fluoro-DL-tryptophane]
Growth after 44 h TG1 (pYEDA1) ([1]; substrate 0.0005 mg/ml): +
Growth after 44 h TG1 (pUC19) ([3]; substrate 0.0005 mg/ml): −

C[C@@H](O)[C@H](N)C(=O)O [L-threonine]
Growth after 44 h TG1 (pYEDA1) ([1]; substrate 50.0 mg/ml): +
Growth after 44 h TG1 (pUC19) ([3]; substrate 50.0 mg/ml): −

N[C@@H](CS)C(=O)O [L-cysteine]
Growth after 44 h TG1 (pYEDA1) ([1]; substrate 7.5 mg/ml): +
Growth after 44 h TG1 (pUC19) ([3]; substrate 7.5 mg/ml): −
